Measurements as given in patent EP2945947B1, “INHIBITING THE TRANSIENT RECEPTOR POTENTIAL A1 ION CHANNEL” (Merck Sharp & Dohme Corp., priority 2013, dated 2014).
pIC50: −log10 of the molar value. Converted amounts (≈) assume the structure as drawn. Read-outs that look alike come from different tables or passages of the source.

Key:
human TRPA1 = human TRPA1 (Homo sapiens, UniProt O75762); assay: Inhibition of the TRPA1 ion channel, whole cell patch configuration (Example 1); type: cell-based; settings: current activation 10 µM AITC, read-out: Human TRPA1 IC50 Inward Current
Chain of human TRPA1 (O75762 whole entry): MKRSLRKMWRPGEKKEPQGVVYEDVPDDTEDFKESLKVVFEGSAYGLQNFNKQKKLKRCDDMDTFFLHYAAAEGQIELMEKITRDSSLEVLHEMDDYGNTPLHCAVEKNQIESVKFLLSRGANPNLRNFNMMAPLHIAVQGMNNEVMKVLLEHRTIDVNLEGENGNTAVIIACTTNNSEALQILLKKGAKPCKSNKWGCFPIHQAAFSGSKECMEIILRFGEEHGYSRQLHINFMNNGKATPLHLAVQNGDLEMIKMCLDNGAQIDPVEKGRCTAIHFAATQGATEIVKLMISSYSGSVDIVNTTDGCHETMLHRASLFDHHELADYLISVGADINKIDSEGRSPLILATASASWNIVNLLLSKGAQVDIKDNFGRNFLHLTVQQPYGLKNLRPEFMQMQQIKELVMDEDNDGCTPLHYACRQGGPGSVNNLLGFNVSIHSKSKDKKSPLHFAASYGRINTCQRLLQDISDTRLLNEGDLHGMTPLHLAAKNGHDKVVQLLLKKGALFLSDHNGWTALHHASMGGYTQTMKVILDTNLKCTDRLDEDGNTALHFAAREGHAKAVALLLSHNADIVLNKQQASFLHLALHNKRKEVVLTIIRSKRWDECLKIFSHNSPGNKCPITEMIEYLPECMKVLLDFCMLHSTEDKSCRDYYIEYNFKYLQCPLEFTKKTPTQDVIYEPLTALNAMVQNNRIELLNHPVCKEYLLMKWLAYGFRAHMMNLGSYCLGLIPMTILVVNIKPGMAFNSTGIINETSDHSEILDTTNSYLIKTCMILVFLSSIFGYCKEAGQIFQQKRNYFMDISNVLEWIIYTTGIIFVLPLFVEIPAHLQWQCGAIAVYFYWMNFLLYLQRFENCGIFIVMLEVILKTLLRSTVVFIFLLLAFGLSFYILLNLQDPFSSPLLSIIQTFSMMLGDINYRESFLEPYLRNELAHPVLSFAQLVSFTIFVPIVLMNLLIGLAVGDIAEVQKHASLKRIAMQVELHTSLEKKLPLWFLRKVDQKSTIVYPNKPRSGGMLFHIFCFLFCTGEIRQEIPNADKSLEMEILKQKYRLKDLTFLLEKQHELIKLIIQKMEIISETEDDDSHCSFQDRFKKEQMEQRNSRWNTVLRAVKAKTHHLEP
Procedure: Compounds of Formula (Ia) inhibit the TRPA1 channel, as measured using the method of Example 1. […] Data for TRPA1 inhibition and for TRPA1 selectivity was obtained by this method for the indicated compounds of Formula (Ia), with the relevant data included in Tables 1a - f below. All currents were recorded in whole-cell configuration using EPC-9 and EPC-10 amplifiers and Patchmaster software (HEKA). […] The standard pipette solution consisted of 140mM CsAsp, 10 mM EGTA, 10 mM HEPES, 2.27 mM MgCl2, 1.91 mM CaCl2, 4 mM MgATP, and 0.1-0.3 mM Na2GTP, with pH adjusted to 7.2 with CsOH. In addition, a solution containing 145 mM CsCl, 10 mM HEPES, 10 mM EGTA and 1 mM MgCl2 (pH 7.2 adjusted with CsOH) can be used. The standard bath solution contained 150 mM NaCl, 10 mM HEPES, 10 mM glucose, 4.5 mM KCl, 1 mM EGTA, 3 mM MgCl2, with pH adjusted to 7.4 with NaOH. In some instances, 2 mM CaCl2 was added in place of EGTA and the concentration of MgCl2 was reduced to 1 mM.
Data were collected either by continuous recordings at -60 mV or by applying voltage ramps from a holding potential of 0 mV every 4 s. Continuous recordings were collected at 400 Hz and digitally filtered off-line at 10 Hz for presentation. Voltage ramps were applied from - 100 mV to 100 mV over the course of 400 ms, and data were collected at 10 kHz and filtered at 2.9 kHz. Inward and outward currents were analyzed from the ramps at -80 and 80 mV, respectively. Liquid junction potential correction was not used.
Solutions were switched using a gravity-fed continuous focal perfusion system. To achieve rapid temperature changes, two temperature control, and perfusion systems were employed simultaneously. For temperatures ≥ 22°C, a Warner Instruments bipolar temperature controller (TC-344B) and inline heater (SHM-8) were used. […] Temperatures were confirmed using a thermistor (Warner Instruments, TA-29), with temperatures at the recorded cell estimated to be within +/- 2°C of those reported.
The antagonist effects of compounds of Formula (Ia) against human TRPA1 ("hTRPA1") and for some compounds rat TRPA1 ("rTRPA1") in a whole cell patch configuration were evaluated using the in vitro assay described above. The current activation tested was 10 µM AITC, and the tested concentrations ranged from 5 µM and 500 nM. Table 1a (Comparative Compounds)

rats = assay: Rodent formalin pain model (Example 3); type: in vivo; settings: rat; for Minimal Efficacious Dose of Compound in Formalin Model: IV, statistically significant difference vs vehicle at 0 - 2 min (p≤0.05); for Duration of Pain Behavior: first two minutes after formalin, vehicle 88.6
Procedure: Compounds of Formula (Ia) are active in rodent models of pain induced by direct activation of the TRPA1 channel with intraplantar injection of the TRPA1 agonist formalin. Compounds of Formula (Ia) were tested in the formalin-induced pain test reported by Abbott et. al. Pain. 1995 Jan;60(1):91-102. Dubuisson et al. describe a method for assessing pain and analgesia in rats. Briefly, dilute formalin (50 µL of 3 % formalin) is injected into the plantar surface of the hind paw. […] The individual responsible for counting the pain behaviors in a particular study is blinded to the treatment groups.
Table 2 is a data table showing the results from testing compounds of Formula (Ia) in the rodent formalin-induced pain model described in […]. Rats were treated with the compounds of Formula (Ia) at various doses (0.1, 0.3, 1, 1.2, 3, 4, 10, or 30 mg/Kg IV) or with a control composition containing the vehicle (i.e., without a compound of Formula (Ia)). Pain behaviors (flinch, lift, lick, bite) were monitored following intraplantar formalin injection. Referring to Table 2, the minimum effective dose was derived from dose resulting in statistically significant difference in behavior at 0 - 2 min time period as compared with vehicle (p≤0.05).

[1] = Aqueous solubility in buffered solutions, HPLC (Example 2); type: physicochemical; settings: kinetic from dmso stock, ambient temperature
[2] = sodium bicarbonate buffer in water for injection/5% dextrose, pH 9.0, 50 mM sodium bicarbonate, read-out: pH 9.0 aqueous solubility
[3] = sodium phosphate buffer in water for injection/5% dextrose, pH 7.4, 75 mM sodium phosphate, read-out: pH 7.4 aqueous solubility

| SMILES | pIC50 (human TRPA1) | other results |
| --- | --- | --- |
| C[C@H](C(=O)Nc1cccc(-c2cnc(N3CCC[C@H]3C(F)(F)F)nc2)n1)n1cnc2c1c(=O)n(C)c(=O)n2C [Compound 1-D] | < 7.00 | – |
| C[C@H]1CCCN1c1ccc(-c2csc(NC(=O)C(C)(C)n3cnc4c3c(=O)n(C)c(=O)n4C)n2)cc1F [Comparator 4, reference compound] | < 7.00 | – |
| [2H]C([2H])([2H])n1c(=O)n(C)c(=O)c2c1ncn2[C@@H](C)C(=O)Nc1cncc(-c2cnc(N3CCC[C@@H]3C)nc2)n1 [Compound 3-M] | > 7.60 | – |
| C[C@@H](C(=O)Nc1cncc(-c2cnc(N3CCCC3(C)C)nc2)n1)n1cnc2c1c(=O)n(C)c(=O)n2C [Compound 2-F, (S)-2-(1,3-dimethyl-2,6-dioxo-1,2,3,6-tetrahydro-7H-purin-7-yl)-N-(6-(2-(2,2-dimethylpyrrolidin-1-yl)pyrimidin-5-yl)pyrazin-2-yl)propanamide] | > 7.60 | Minimal Efficacious Dose of Compound in Formalin Model (rats): 1 mg/kg; Duration of Pain Behavior (rats; dose 0.3 mg/kg IV): 67.5 s; Duration of Pain Behavior (rats; dose 1 mg/kg IV): 7 s; Duration of Pain Behavior (rats; dose 3 mg/kg IV): 5 s; solubility kinetic at 24 h [1, 2]: 6 µg/mL (≈ 11.9 µM); solubility kinetic at 24 h [1, 3]: 6 µg/mL (≈ 11.9 µM) |
| CC(C(=O)Nc1cccc(-c2cnc(N3CCC[C@@H]3C)nc2)n1)n1cnc2c1c(=O)n(C)c(=O)n2C (stereo partly shown) [Compound 4-Q] | 7.12 to 7.60 | – |
| C[C@H]1CCCN1c1ncc(-c2cccc(NC(=O)[C@H](C)n3cnc4c3c(=O)n(C)c(=O)n4C)n2)cn1 [Compound 4-P] | 7.12 to 7.60 | – |
| [2H]C([2H])([2H])n1c(=O)n(C)c(=O)c2c1ncn2[C@H](C)C(=O)Nc1cncc(-c2cnc(N3CCCC3(C)C)nc2)n1 [Compound 2-I] | < 7.00 | – |
| C[C@H]1CCCN1c1ncc(-c2cncc(NC(=O)[C@H](C)n3cnc4c3c(=O)n(C)c(=O)n4C)n2)cn1 [Compound 3-N, (S)-2-(1,3-dimethyl-2,6-dioxo-1,2,3,6-tetrahydro-7H-purin-7-yl)-N-(6-(2-((S)-2-methylpyrrolidin-1-yl)pyrimidin-5-yl)pyrazin-2-yl)propanamide] | < 7.00 | – |
| CC(C)c1ccc(NC(=O)C(C)n2cnc3c2c(=O)n(C)c(=O)n3C)cc1 (stereo not shown) [Comparator 3, reference compound] | < 7.00 | – |
| C[C@H](C(=O)Nc1cncc(-c2cnc(N3CCC[C@H]3C(F)(F)F)nc2)n1)n1cnc2c1c(=O)n(C)c(=O)n2C [Compound 5-V] | < 7.00 | – |
| CC(C(=O)Nc1cccc(-c2cnc(N3CCC[C@H]3C(F)(F)F)nc2)n1)n1cnc2c1c(=O)n(C)c(=O)n2C (stereo partly shown) [Compound 1-C] | > 7.60 | – |
| C[C@H](C(=O)Nc1cccc(-c2cnc(N3CCC[C@@H]3C)nc2)n1)n1cnc2c1c(=O)n(C)c(=O)n2C [Compound 4-R] | < 7.00 | – |
| CC(C(=O)Nc1cncc(-c2cnc(N3CCC[C@H]3C(F)(F)F)nc2)n1)n1cnc2c1c(=O)n(C)c(=O)n2C (stereo partly shown) [Compound 5-U] | > 7.60 | – |
| C[C@H]1CCCN1c1ncc(-c2cncc(NC(=O)[C@H](C)n3cnc4c3c(=O)n(C)c(=O)n4C)n2)cn1 [Compound 3-K, (S)-2-(1,3-dimethyl-2,6-dioxo-1,2,3,6-tetrahydro-7H-purin-7-yl)-N-(6-(2-((S)-2-methylpyrrolidin-1-yl)pyrimidin-5-yl)pyrazin-2-yl)propanamide] | 7.12 to 7.60 | Minimal Efficacious Dose of Compound in Formalin Model (rats): <3 mg/kg; Duration of Pain Behavior (rats; dose 3 mg/kg IV): 13.5 s; Duration of Pain Behavior (rats; dose 10 mg/kg IV): 2.6 s; Duration of Pain Behavior (rats; dose 30 mg/kg IV): 3.4 s; solubility kinetic at 24 h [1, 2]: 48 µg/mL (≈ 97.9 µM); solubility kinetic at 24 h [1, 3]: 38 µg/mL (≈ 77.5 µM) |
| [2H]C([2H])([2H])n1c(=O)n(C)c(=O)c2c1ncn2[C@@H](C)C(=O)Nc1cncc(-c2cnc(N3CCCC3(C)C)nc2)n1 [Compound 2-H] | > 7.60 | – |
| C[C@H]1CCCN1c1cncc(NC(=O)[C@H](C)N2C=NC3C2C(=O)N(C)C(=O)N3C)n1 (stereo partly shown) [Comparator 5, reference compound] | < 7.00 | – |
| C[C@H]1CCCN1c1cccc(NC(=O)[C@H](C)N2C=NC3C2C(=O)N(C)C(=O)N3C)n1 (stereo partly shown) [Comparator 6, reference compound] | < 7.00 | – |
| C[C@@H](C(=O)Nc1cccc(-c2cnc(N3CCC[C@H]3C(F)(F)F)nc2)n1)n1cnc2c1c(=O)n(C)c(=O)n2C [Compound 1-B, (S)-2-(1,3-Dimethyl-2,6-dioxo-1,2,3,6-tetrahydro-7H-purin-7-yl)-N-(6-(2-((S)-2-(trifluoromethyl)pyrrolidin-1-yl)pyrimidin-5-yl)pyridin-2-yl)propanamide] | > 7.60 | Minimal Efficacious Dose of Compound in Formalin Model (rats): <3 mg/kg; Duration of Pain Behavior (rats; dose 3 mg/kg IV): 6.1 s; Duration of Pain Behavior (rats; dose 10 mg/kg IV): 0.3 s; solubility kinetic at 24 h [1, 2]: 49 µg/mL (≈ 90.2 µM); solubility kinetic at 24 h [1, 3]: 44 µg/mL (≈ 81 µM) |
| C[C@H](C(=O)Nc1cncc(-c2cnc(N3CCCC3(C)C)nc2)n1)n1cnc2c1c(=O)n(C)c(=O)n2C [Compound 2-G] | < 7.00 | – |
| C[C@H](C(=O)Nc1cncc(-c2cnc(N3CCC[C@@H]3C)nc2)n1)n1cnc2c1c(=O)n(C)c(=O)n2C [Compound 3-L] | < 7.00 | – |
